Measurements as given in patent publication US6774143B1, “Method for treating cells resistant to antineoplastic agents” (Novartis AG, priority 2003, dated 2004).

What was measured:
[1] = Toxicity in non-tumor bearing naive nude mice (body weight); format: in vivo; conditions: for body weight change: naive mice
Procedure: To assess toxicity of discodernolide on non-tumor bearing animals, four groups of 8 naive nude mice are dosed with the compound, iv, once (5 mg/kg, 7.5 mg/kg, 10 mg/kg, or 15 mg/kg). The control group is dosed with the vehicle alone (16.7% Cremophor EL, 8.3% ethanol and 75% D5W). Body weights are recorded once weekly.

[2] = system: HCT-15 human colon tumor xenograft; assay: Subcutaneous HCT-15 colon tumor model in athymic nude mice; format: in vivo; conditions: for body weight losses, highest reached: 2.5-15 mg/kg
Text: All cell lines that are used in animal studies are free of Mycoplasma contamination (Rapid Detection System by Gen-Probe, Inc., San Diego, Calif.) and viral contamination (MAP testing by MA BioServices, Inc., Rockville, Md.). The HCT-15 human colon tumor cell line is purchased from the American Type Culture Collection, Rockville, Md., Accession Number ATCC CCL 225. The MIP 101 human colon tumor cell line is obtained from Dr. R. Kramer (Bristol Meyers Squibb) and was previously described (Niles R M, et al. Cancer Invest. 1987;5(6):545-52). These cells are Pgp-1 (human Pgp) overexpressors, making the cells resistant to paclitaxel. All cell lines are propagated and expanded in RPMI 1640 medium containing 10% heat-inactivated FBS (Life Technologies, Grand Island, N.Y.). Cell expansions for implantation are performed in T225 tissue culture flasks. Cells are harvested at 70-90% confluency, washed once with HBSS containing 10% FBS, and are suspended in plain HBSS.
Outbred athymic (nu/nu) female mice (“Hsd:Athymic Nude-nu” from Harlan Sprague Dawley, Indianapolis, Ind.) are anesthetized with Metofane (Mallinckrodt Veterinary, Inc., Mundelein, Ill.,). A cell suspension (100 μL) containing 1×10^6 cells is then injected sc into the right axillary (lateral) region of each animal. Tumors are allowed to grow until a volume of approximately 100 mm^3 was achieved. At this point, mice bearing tumors are sorted into groups of eight for the study. The sorting process produced groups balanced with respect to mean and range of tumor size.
Discodermolide is isolated from the sponge Discodermia dissoluta using the methods of (Gunasekera S P, et al. supra). Multiple batches of compound of similar purity (all>95% pure, as determined by mass spectrometry, and nuclear magnetic resonance analysis) are used throughout the various studies. Solid discodermolide is dissolved in pure ethanol to create a stock solution which is diluted just before dosing with Cremophor EL (Crm) and D5W to a final concentration of 16.7% Cremophor EL, 8.3% ethanol and 75% D5W. The compound is administered intravenously (iv). In the first study discodermolide is tested against both tumors at five different dosing schedules: (i.) 30 mg/kg dosed as two 15 mg/kg injections on day 1 of the experiment, (ii.) 30 mg/kg dosed as three 10 mg/kg injections on days 1, 2, and 3, (iii.) 15 mg/kg dosed as a single injection on day 1, (iv.) 20 mg/kg dosed as a 15 mg/kg injection on day 1, followed by a 5 mg/kg injection on day 11, and (v.) 10 mg/kg dosed as a 7.5 mg/kg injection on day 1 followed by a 2.5 mg/kg injection on day 11. In the second study discodermolide is dosed as one injection on the first day of the experiment, at 2.5 mg/kg, 5 mg/kg, 7.5 mg/kg, 10 mg/kg, 12.5 mg/kg, or 15 mg/kg. In addition the 7.5 mg/kg injection on day 1 followed by a 2.5 mg/kg injection on day 11 is repeated from the first study. The actual doses, regimens and routes of administration used for the specific models are discussed in each section separately. Positive control animals receive clinical formulations of paclitaxel (TAXOL) diluted 4-fold with D5W and administered iv once daily for five consecutive days. Vehicle control for paclitaxel is administered according to paclitaxel's schedule. In the first study vehicle controls for discodermolide (16.7% Cremophor EL, 8.3% ethanol and 75% D5W) are administered as three daily injections on days 1, 2, and 3, or as two injections on days 1, and 11. In the second study vehicle control for discodermolide is administered as a single injection on day 1.
Tumors are measured, and individual animal body weights are recorded once weekly. Standard experiments are conducted for 3 full weeks from the initial dosing.
Antitumor activity is expressed as % T/C (comparing Δ tumor volumes for treatment group to vehicle control group). […]

[3] = first study, 7.5 mg/kg day 1 + 2.5 mg/kg day 11
[4] = first study, discodermolide iv single 15 mg/kg injection on day 1
[5] = first study, two 15 mg/kg injections on day 1 (30 mg/kg total)
[6] = second study, 7.5 mg/kg day 1 + 2.5 mg/kg day 11

Compound: C=C/C=C\[C@H](C)[C@H](OC(N)=O)[C@@H](C)[C@H](O)[C@@H](C)C/C(C)=C\[C@H](C)[C@@H](O)[C@@H](C)/C=C\[C@@H](O)C[C@@H]1OC(=O)[C@H](C)[C@@H](O)[C@H]1C [discodermolide, (+)-Discodermolide]
- body weight lost ([1]; naive athymic nude mice, single injections, one week after dosing): no more than 4%
- body weight change ([1]; single iv 5 mg/kg, one week after dosing): +8.7%
- body weight change ([1]; single iv 5 mg/kg, three weeks after dosing): +9.4%
- body weight change ([1]; single iv 5 mg/kg, two weeks after dosing): +9.4%
- body weight change ([1]; single iv 7.5 mg/kg, one week after dosing): +1.2%
- body weight change ([1]; single iv 7.5 mg/kg, three weeks after dosing): +7.7%
- body weight change ([1]; single iv 7.5 mg/kg, two weeks after dosing): +3.2%
- body weight change ([1]; single iv 10 mg/kg, one week after dosing): −1.2%
- body weight change ([1]; single iv 10 mg/kg, three weeks after dosing): +5.6%
- body weight change ([1]; single iv 10 mg/kg, two weeks after dosing): +1.2%
- body weight change ([1]; single iv 15 mg/kg, one week after dosing): −4.1%
- body weight change ([1]; single iv 15 mg/kg, three weeks after dosing): +5.90%
- body weight change ([1]; single iv 15 mg/kg, two weeks after dosing): −0.4%
- inhibition of tumor growth (in words) ([2]; HCT-15 xenograft, athymic nude mice): statistically significant (p<0.01) and reproducible inhibition of tumor growth
- T/C [2, 3]: 31%
- body weight loss [2, 3]: 17.3%
- fate of the remaining four animals ([2]; first study, 15 mg/kg day 1 + 5 mg/kg day 11): sacrificed due to the excessive body weight loss
- animals that die in the second week ([2]; first study, 15 mg/kg day 1 + 5 mg/kg day 11, group of eight): Four animals
- fate of the animals ([2]; first study, 30 mg/kg as three 10 mg/kg injections on days 1, 2, 3, all animals): sacrificed in the beginning of the third week of the experiment due to excessive body weight loss
- T/C [2, 4]: 43%
- body weight loss [2, 4]: 18.9%
- T/C [2, 5]: 22%
- body weight loss [2, 5]: 24.6%
- body weight losses, highest reached ([2]; original dose response study (second)): 13%
- body weight losses, highest reached ([2]; repeat of the dose response study (third experiment)): 23%
- T/C [2, 6]: 29%
- body weight loss [2, 6]: 11.4%
- T/C ([2]; second study, single injection 2.5 mg/kg day 1): 62%
- body weight change ([2]; second study, single injection 2.5 mg/kg, gain): 3.5%
- body weight change ([2]; second study, single injection 5 mg/kg): −1.9%
- T/C ([2]; second study, single injection 5 mg/kg day 1): 44%
- body weight change ([2]; second study, single injection 7.5 mg/kg): −7.9%
- T/C ([2]; second study, single injection 7.5 mg/kg day 1): 43%
- body weight change ([2]; second study, single injection 10 mg/kg): −8.5%
- T/C ([2]; second study, single injection 10 mg/kg day 1): 40%
- body weight change ([2]; second study, single injection 12.5 mg/kg): −12.9%
- T/C ([2]; second study, single injection 12.5 mg/kg day 1): 28%
- body weight change ([2]; second study, single injection 15 mg/kg): −11.0%
- T/C ([2]; second study, single injection 15 mg/kg day 1): 27%
- T/C ([2]; third study, single injection 2.5 mg/kg day 1): 54%
- body weight change ([2]; third study, single injection 2.5 mg/kg, gain): 1.7%
- body weight change ([2]; third study, single injection 5 mg/kg): −8.9%
- T/C ([2]; third study, single injection 5 mg/kg day 1): 43%
- body weight change ([2]; third study, single injection 7.5 mg/kg): −23.3%
- T/C ([2]; third study, single injection 7.5 mg/kg day 1): 23%
- body weight change ([2]; third study, single injection 10 mg/kg): −17.6%
- T/C ([2]; third study, single injection 10 mg/kg day 1): 27%
- body weight change ([2]; third study, single injection 12.5 mg/kg): −20.1%
- T/C ([2]; third study, single injection 12.5 mg/kg day 1): 25%
- body weight change ([2]; third study, single injection 15 mg/kg): −13.4%
- T/C ([2]; third study, single injection 15 mg/kg day 1): 19%

Compound: CC(=O)O[C@H]1C(=O)[C@@]2(C)[C@H]([C@H](OC(=O)c3ccccc3)[C@]3(O)C[C@H](OC(=O)[C@H](O)[C@@H](NC(=O)c4ccccc4)c4ccccc4)C(C)=C1C3(C)C)[C@]1(OC(C)=O)CO[C@@H]1C[C@@H]2O [paclitaxel, reference compound]
- T/C ([2]; first study, paclitaxel 15 mg/kg daily for the first 5 days): 95%
- T/C ([2]; second study, paclitaxel iv once daily for five days): 94%
- T/C ([2]; third study, paclitaxel iv once daily for five days): 81%
